Assay results taken from patent US12662465B2, “EGFR inhibitors” (Blueprint Medicines Corporation, priority 2021, dated 2026).
Where two headings read alike, the source gives them in different places.

Key:
EGFR L858R = biological target: T1, EGFR L858R (Homo sapiens, UniProt P00533, L858R); experiment: Biochemical EGFR inhibition assay (Caliper mobility shift), EGFR L858R; details: read-out: Enz EGFR_L858R IC50
T1 construct: purchased SignalChem E10-122BG

EGFR (d746-750) = biological target: T2, EGFR (d746-750) (Homo sapiens, UniProt P00533, DEL746-750); experiment: Biochemical EGFR inhibition assay (Caliper mobility shift), EGFR (d746-750); details: read-out: Enz EGFR_Exon19-del746-750 IC50
T2 construct: purchased SignalChem E10-122JG
T2 sequence (P00533 with tags, fused parts or gaps DEL746-750 limits assumed): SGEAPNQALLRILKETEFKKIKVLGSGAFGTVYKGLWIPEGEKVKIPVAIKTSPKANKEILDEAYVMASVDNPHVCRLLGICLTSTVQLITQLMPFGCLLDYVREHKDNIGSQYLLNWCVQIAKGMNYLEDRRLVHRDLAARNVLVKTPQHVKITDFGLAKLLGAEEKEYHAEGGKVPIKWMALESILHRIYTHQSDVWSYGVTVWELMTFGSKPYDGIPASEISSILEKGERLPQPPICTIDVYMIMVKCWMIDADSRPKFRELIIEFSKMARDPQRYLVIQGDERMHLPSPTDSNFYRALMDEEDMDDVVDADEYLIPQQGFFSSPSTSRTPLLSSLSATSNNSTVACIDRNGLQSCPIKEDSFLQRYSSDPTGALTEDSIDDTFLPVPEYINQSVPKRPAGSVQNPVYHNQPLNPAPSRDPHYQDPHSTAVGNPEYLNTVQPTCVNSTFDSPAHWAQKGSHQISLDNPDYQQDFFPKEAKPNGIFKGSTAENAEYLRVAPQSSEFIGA

[1] = biological target: intracellular phosphorylation of EGFR (Tyr1068) in PC-9 cells (Ex19Del) (Homo sapiens, UniProt P00533, DEL746-750); experiment: PC-9 pEGFR AlphaLISA assay; type: cell-based; details: 4 hours compound incubation, read-out: Ext pEGFR_PC-9 Ex19Del IC50
intracellular phosphorylation of EGFR (Tyr1068) in PC-9 cells (Ex19Del), sequence (P00533 with tags, fused parts or gaps DEL746-750): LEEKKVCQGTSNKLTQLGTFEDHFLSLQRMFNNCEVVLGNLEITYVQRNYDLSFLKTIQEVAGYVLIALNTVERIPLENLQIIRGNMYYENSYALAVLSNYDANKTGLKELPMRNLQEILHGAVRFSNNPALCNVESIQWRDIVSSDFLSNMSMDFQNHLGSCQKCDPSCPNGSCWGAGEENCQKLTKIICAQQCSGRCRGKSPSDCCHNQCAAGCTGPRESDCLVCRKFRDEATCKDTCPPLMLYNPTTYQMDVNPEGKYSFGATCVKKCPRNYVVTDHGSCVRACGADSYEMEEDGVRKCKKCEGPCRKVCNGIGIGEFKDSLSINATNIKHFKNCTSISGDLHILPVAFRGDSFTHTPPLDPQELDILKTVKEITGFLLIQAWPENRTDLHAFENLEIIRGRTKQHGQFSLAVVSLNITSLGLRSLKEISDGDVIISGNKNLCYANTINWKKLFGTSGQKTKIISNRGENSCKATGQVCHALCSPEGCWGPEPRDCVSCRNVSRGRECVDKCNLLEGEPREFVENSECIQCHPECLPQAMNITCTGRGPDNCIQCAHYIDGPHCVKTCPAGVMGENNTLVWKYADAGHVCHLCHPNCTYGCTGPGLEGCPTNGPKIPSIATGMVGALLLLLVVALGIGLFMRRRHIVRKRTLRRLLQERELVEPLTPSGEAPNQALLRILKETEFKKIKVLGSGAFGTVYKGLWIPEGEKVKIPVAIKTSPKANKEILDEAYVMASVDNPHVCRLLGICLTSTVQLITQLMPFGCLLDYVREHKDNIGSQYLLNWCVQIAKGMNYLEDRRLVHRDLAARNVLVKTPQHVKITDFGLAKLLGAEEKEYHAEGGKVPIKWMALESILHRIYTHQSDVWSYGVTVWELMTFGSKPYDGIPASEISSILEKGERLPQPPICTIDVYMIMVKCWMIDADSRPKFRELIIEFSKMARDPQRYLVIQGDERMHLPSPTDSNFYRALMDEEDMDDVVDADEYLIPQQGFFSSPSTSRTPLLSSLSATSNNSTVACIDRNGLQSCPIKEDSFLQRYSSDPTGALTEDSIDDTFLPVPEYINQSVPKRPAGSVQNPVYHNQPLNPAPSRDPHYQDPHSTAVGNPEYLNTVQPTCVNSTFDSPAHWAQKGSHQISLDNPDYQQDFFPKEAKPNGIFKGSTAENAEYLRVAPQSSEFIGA

[2] = 1.0 mM ATP or ATP Km, room temperature (25° C.)

T1 sequence (P00533 25-1210 L858R): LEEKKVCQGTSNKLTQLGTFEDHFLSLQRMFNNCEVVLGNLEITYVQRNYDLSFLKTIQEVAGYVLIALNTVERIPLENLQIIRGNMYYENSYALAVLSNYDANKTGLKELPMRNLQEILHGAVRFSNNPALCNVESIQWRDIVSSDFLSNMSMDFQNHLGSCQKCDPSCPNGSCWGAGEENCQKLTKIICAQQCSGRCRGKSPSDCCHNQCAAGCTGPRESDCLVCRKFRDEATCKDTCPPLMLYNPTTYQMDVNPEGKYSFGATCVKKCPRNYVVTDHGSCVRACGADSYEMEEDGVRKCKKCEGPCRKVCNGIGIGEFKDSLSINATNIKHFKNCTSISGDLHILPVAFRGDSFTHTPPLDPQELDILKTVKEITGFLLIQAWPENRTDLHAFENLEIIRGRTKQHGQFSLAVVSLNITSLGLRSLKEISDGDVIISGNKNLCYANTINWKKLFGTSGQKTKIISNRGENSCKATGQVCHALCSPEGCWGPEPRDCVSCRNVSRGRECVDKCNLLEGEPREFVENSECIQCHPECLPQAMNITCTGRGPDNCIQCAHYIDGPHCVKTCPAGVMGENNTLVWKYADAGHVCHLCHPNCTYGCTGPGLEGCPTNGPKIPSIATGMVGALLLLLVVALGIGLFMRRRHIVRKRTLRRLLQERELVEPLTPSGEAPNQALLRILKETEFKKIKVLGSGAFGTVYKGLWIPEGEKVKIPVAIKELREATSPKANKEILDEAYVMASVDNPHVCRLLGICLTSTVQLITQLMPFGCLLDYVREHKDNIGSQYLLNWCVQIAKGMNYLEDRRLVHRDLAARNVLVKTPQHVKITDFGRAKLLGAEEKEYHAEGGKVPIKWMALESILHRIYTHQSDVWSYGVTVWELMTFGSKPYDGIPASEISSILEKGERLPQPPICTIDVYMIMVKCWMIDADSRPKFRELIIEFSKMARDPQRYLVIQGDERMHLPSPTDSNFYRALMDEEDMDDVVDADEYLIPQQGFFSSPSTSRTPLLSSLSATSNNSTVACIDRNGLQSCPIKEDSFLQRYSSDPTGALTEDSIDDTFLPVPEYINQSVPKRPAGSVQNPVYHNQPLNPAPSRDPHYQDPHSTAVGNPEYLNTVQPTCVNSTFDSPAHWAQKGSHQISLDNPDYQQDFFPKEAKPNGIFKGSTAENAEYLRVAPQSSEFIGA

SMILES	IC50 (EGFR L858R)	IC50 (EGFR (d746-750))	IC50 [1]	IC50 (EGFR L858R; [2])	IC50 (EGFR (d746-750); [2])
C[C@H](CN(C)C)Oc1cc(N2CC(C)(O)C2)cc2ncnc(Nc3ccc4ncccc4c3F)c12 [Example 93, (R)-1-(5-((1-(dimethylamino)propan-2-yl)oxy)-4-((5-fluoroquinolin-6-yl)amino)quinazolin-7-yl)-3-methylazetidin-3-ol]	10.1 to 50 nM	< 10 nM	10.1 to 50 nM	–	–
C[C@H](CN(C)C)Oc1cc(-c2cnn(C)c2)cc2ncnc(Nc3ccc4nccnc4c3F)c12 [Example 109, (R)-5-((1-(dimethylamino)propan-2-yl)oxy)-N-(5-fluoroquinoxalin-6-yl)-7-(1-methyl-1H-pyrazol-4-yl)quinazolin-4-amine]	> 50.1 nM	10.1 to 50 nM	> 50.1 nM	–	–
C[C@H](CN(C)C)Oc1cc(-c2cnn(C)c2)cc2ncnc(Nc3ccc4ncc(O)cc4c3F)c12 [Example 116, (R)-6-((5-((1-(dimethylamino)propan-2-yl)oxy)-7-(1-methyl-1H-pyrazol-4-yl)quinazolin-4-yl)amino)-5-fluoroquinolin-3-ol]	< 10 nM	< 10 nM	> 50.1 nM	–	–
CCNC[C@@H](C)Oc1cc(-c2cnn(C)c2)cc2ncnc(Nc3ccc4ncccc4c3F)c12 [Example 102, (R)-5-((1-(ethylamino)propan-2-yl)oxy)-N-(5-fluoroquinolin-6-yl)-7-(1-methyl-1H-pyrazol-4-yl)quinazolin-4-amine]	10.1 to 50 nM	10.1 to 50 nM	> 50.1 nM	–	–
C[C@@H](Oc1cc(N2CCOC(C)(C)C2)cc2ncnc(Nc3ccc4ncccc4c3F)c12)C1COC1 [Example 60, (R)-7-(2,2-dimethylmorpholino)-N-(5-fluoroquinolin-6-yl)-5-(1-(oxetan-3-yl)ethoxy)quinazolin-4-amine]	10.1 to 50 nM	< 10 nM	10.1 to 50 nM	–	–
C[C@@H](Oc1cc(-c2cnn(C)c2)cc2ncnc(Nc3ccc4ncccc4c3F)c12)C1COC1 [Example 46, (R)—N-(5-fluoroquinolin-6-yl)-7-(1-methyl-1H-pyrazol-4-yl)-5-(1-(oxetan-3-yl)ethoxy)quinazolin-4-amine]	< 10 nM	< 10 nM	≤ 10 nM	–	–
C[C@H](CN(C)C)Oc1cc(-c2cnn(C)c2)cc2ncnc(Nc3ccc4nc(O)ccc4c3F)c12 [Example 130, (R)-6-((5-((1-(dimethylamino)propan-2-yl)oxy)-7-(1-methyl-1H-pyrazol-4-yl)quinazolin-4-yl)amino)-5-fluoroquinolin-2-ol]	> 50.1 nM	10.1 to 50 nM	> 50.1 nM	–	–
C[C@H](CN(C)C)Oc1cc(N2CC3CCC(C2)O3)cc2ncnc(Nc3ccc4ncccc4c3F)c12 [Example 69, 7-(8-oxa-3-azabicyclo[3.2.1]octan-3-yl)-5-(((R)-1-(dimethylamino)propan-2-yl)oxy)-N-(5-fluoroquinolin-6-yl)quinazolin-4-amine]	> 50.1 nM	10.1 to 50 nM	> 50.1 nM	–	–
C[C@H](CN(C)C)Oc1cc(-c2cnn(C)c2)cc2ncnc(Nc3cnc4ncccc4c3)c12 [Example 40, (R)-5-((1-(dimethylamino)propan-2-yl)oxy)-7-(1-methyl-1H-pyrazol-4-yl)-N-(1,8-naphthyridin-3-yl)quinazolin-4-amine]	10.1 to 50 nM	< 10 nM	≤ 10 nM	–	–
CO[C@@H]1CCN(c2cc(O[C@H](C)C3COC3)c3c(Nc4ccc5ncccc5c4F)ncnc3c2)C1 (single isomer, unassigned) [Example 85a, N-(5-fluoroquinolin-6-yl)-7-((R)-3-methoxypyrrolidin-1-yl)-5-((R)-1-(oxetan-3-yl)ethoxy)quinazolin-4-amine or N-(5-fluoroquinolin-6-yl)-7-((S)-3-methoxypyrrolidin-1-yl)-5-((R)-1-(oxetan-3-yl)ethoxy)quinazolin-4-amine]	–	–	≤ 10 nM	< 10 nM	< 10 nM
CN(C)CC1(COc2cc(-c3cnn(C)c3)cc3ncnc(Nc4ccc5ncccc5c4F)c23)COC1 [Example 12, 5-((3-((dimethylamino)methyl)oxetan-3-yl)methoxy)-N-(5-fluoroquinolin-6-yl)-7-(1-methyl-1H-pyrazol-4-yl) quinazolin-4-amine]	10.1 to 50 nM	< 10 nM	> 50.1 nM	–	–

Next, values leading:

IC50 (EGFR L858R)	IC50 (EGFR (d746-750))	IC50 [1]	IC50 (EGFR L858R; [2])	IC50 (EGFR (d746-750); [2])	SMILES
–	–	≤ 10 nM	< 10 nM	< 10 nM	C[C@H](O)[C@H](C)Oc1cc(-c2cnn(C)c2)cc2ncnc(Nc3ccc4ncccc4c3F)c12 (single isomer, unassigned) [Example 30, (2S,3S)-3-((4-((5-fluoroquinolin-6-yl)amino)-7-(1-methyl-1H-pyrazol-4-yl)quinazolin-5-yl)oxy)butan-2-ol or (2R,3R)-3-((4-((5-fluoroquinolin-6-yl)amino)-7-(1-methyl-1H-pyrazol-4-yl)quinazolin-5-yl)oxy)butan-2-ol]
< 10 nM	< 10 nM	≤ 10 nM	–	–	C[C@H](CN(C)C)Oc1cc(-c2cnn(C)c2)cc2ncnc(Nc3cc(O)c4ncccc4c3F)c12 [Example 122, (R)-6-((5-((1-(dimethylamino)propan-2-yl)oxy)-7-(1-methyl-1H-pyrazol-4-yl)quinazolin-4-yl)amino)-5-fluoroquinolin-8-ol]
< 10 nM	< 10 nM	≤ 10 nM	–	–	CN1CCC(Oc2cc(-c3cnn(CC(F)F)c3)cc3ncnc(Nc4ccc5ncccc5c4F)c23)CC1 [Example 53, 7-(1-(2,2-difluoroethyl)-1H-pyrazol-4-yl)-N-(5-fluoroquinolin-6-yl)-5-((1-methylpiperidin-4-yl)oxy)quinazolin-4-amine]
10.1 to 50 nM	< 10 nM	≤ 10 nM	–	–	C[C@H](CN(C)C)Oc1cc(N(C)C)cc2ncnc(Nc3ccc4ncccc4c3F)c12 [Example 153, (R)-5-((1-(dimethylamino)propan-2-yl)oxy)-N4-(5-fluoroquinolin-6-yl)-N7,N7-dimethylquinazoline-4,7-diamine]
–	–	≤ 10 nM	< 10 nM	< 10 nM	C[C@H](Oc1cc(-c2cnn(C)c2)cc2ncnc(Nc3ccc4ncccc4c3F)c12)C(=O)N1CCOCC1 (single isomer, unassigned) [Example 139, (S)-2-((4-((5-fluoroquinolin-6-yl)amino)-7-(1-methyl-1H-pyrazol-4-yl)quinazolin-5-yl)oxy)-1-morpholinopropan-1-one or (R)-2-((4-((5-fluoroquinolin-6-yl)amino)-7-(1-methyl-1H-pyrazol-4-yl)quinazolin-5-yl)oxy)-1-morpholinopropan-1-one]
10.1 to 50 nM	< 10 nM	≤ 10 nM	–	–	C[C@H](CN(C)C)Oc1cc(N2CCOCC2)cc2ncnc(Nc3ccc4ncccc4c3F)c12 [Example 65, (R)-5-((1-(dimethylamino)propan-2-yl)oxy)-N-(5-fluoroquinolin-6-yl)-7-morpholinoquinazolin-4-amine]
< 10 nM	< 10 nM	≤ 10 nM	–	–	CO[C@@H]1CCN(c2cc3ncnc(Nc4ccc5ncccc5c4F)c3c(O[C@H](C)CN(C)C)n2)C1 [Example 76, 5—(((R)-1-(dimethylamino)propan-2-yl)oxy)-N-(5-fluoroquinolin-6-yl)-7-((R)-3-methoxypyrrolidin-1-yl)pyrido[4,3-d]pyrimidin-4-amine]
< 10 nM	< 10 nM	≤ 10 nM	–	–	C[C@H](CN(C)C)Oc1cc(-c2cnn(C)c2)cc2ncnc(Nc3cc(F)c4ncccc4c3F)c12 [Example 10, (R)—N-(5,8-difluoroquinolin-6-yl)-5-((1-(dimethylamino)propan-2-yl)oxy)-7-(1-methyl-1H-pyrazol-4-yl)quinazolin-4-amine]
< 10 nM	< 10 nM	≤ 10 nM	–	–	C[C@@H](Oc1cc(-c2cnn(C)c2)cc2ncnc(Nc3ccc4ncc(F)cc4c3)c12)C1COC1 [Example 3, (R)—N-(3-fluoroquinolin-6-yl)-7-(1-methyl-1H-pyrazol-4-yl)-5-(1-(oxetan-3-yl)ethoxy)quinazolin-4-amine]
< 10 nM	< 10 nM	≤ 10 nM	–	–	C[C@H](CN(C)C)Oc1cc(-c2cnn(CC(F)F)c2)cc2ncnc(Nc3ccc4ncccc4c3F)c12 [Example 55, (R)-7-(1-(2,2-difluoroethyl)-1H-pyrazol-4-yl)-5-((1-(dimethylamino)propan-2-yl)oxy)-N-(5-fluoroquinolin-6-yl)quinazolin-4-amine]
< 10 nM	< 10 nM	≤ 10 nM	–	–	C[C@@H](Oc1cc(N2CC[C@@H](N(C)C)C2)cc2ncnc(Nc3ccc4ncccc4c3F)c12)C1COC1 [Example 79, 7—((R)-3-(dimethylamino)pyrrolidin-1-yl)-N-(5-fluoroquinolin-6-yl)-5-((R)-1-(oxetan-3-yl)ethoxy)quinazolin-4-amine]
10.1 to 50 nM	< 10 nM	≤ 10 nM	–	–	C[C@H](CN1CCC1)Oc1cc(-c2cnn(C)c2)cc2ncnc(Nc3ccc4ncccc4c3F)c12 [Example 101, (R)-5-((1-(azetidin-1-yl)propan-2-yl)oxy)-N-(5-fluoroquinolin-6-yl)-7-(1-methyl-1H-pyrazol-4-yl)quinazolin-4-amine]
< 10 nM	< 10 nM	≤ 10 nM	–	–	C[C@H](CO)Oc1cc(-c2cnn(C)c2)cc2ncnc(Nc3ccc4ncccc4c3F)c12 [Example 135, (R)-2-((4-((5-fluoroquinolin-6-yl)amino)-7-(1-methyl-1H-pyrazol-4-yl)quinazolin-5-yl)oxy)propan-1-ol]
< 10 nM	< 10 nM	≤ 10 nM	–	–	COC[C@@H](C)Oc1cc(-c2cnn(C)c2)cc2ncnc(Nc3ccc4ncccc4c3F)c12 [Example 31, (R)—N-(5-fluoroquinolin-6-yl)-5-((1-methoxypropan-2-yl)oxy)-7-(1-methyl-1H-pyrazol-4-yl)quinazolin-4-amine]
